Values after ≈ are worked out from the molar mass of the structure shown. Read-outs that look alike come from different tables or passages of the source.
Legend:
Serratia marcescens = assay: microbe, parasite or virus in culture; type: cell-based; conditions: Serratia marcescens, read-out: MIC
Excerpt: (§1) Bacterial isolates of Escherichia coli, Klebsiella pneumonia, Serratia marcescens, Pseudomonas aeruginosa, Enterobacter cloacae, and Enterobacter aerogenes, which were obtained from clinical cases of bovine mastitis, were used to assess the bactericidal activity of peptides in a broth microdilution assay. Isolates were obtained from repositories at Cornell University (gift of Dr. Y. H. Schukken; Quality Milk Production Services Program, Cornell University, Ithaca N.Y.) and the USDA Beltsville Agricultural Research Center. […] A. J. Bramley, Institute for Animal Health, Compton Laboratory, Newbury, England), which was originally isolated from a clinical case of mastitis ([…]. Dairy Res. 43: 205-211) was also used to assess the bactericidal activity of the peptides in biological fluids. Reference strains of E. coli (ATCC 25922) and Staphylococcus aureus (ATCC 29213) were obtained from a commercial source (American Type Culture Collection (ATCC), Manassas, Va.). To obtain fresh inoculums for evaluation, a sterile loop of each bacterial glycerol stock was streaked on a blood agar plate. After an overnight incubation at 35° C., a single uniform colony was picked and sub-passaged by streaking on a new blood agar plate and incubating the plate overnight at 35° C. To evaluate the antimicrobial activity of the peptides against various clinical mastitis bacterial isolates, the minimum inhibitory concentration (MIC) and the minimum bactericidal concentration (MBC) of these peptides against the isolates were determined using a standardized broth microdilution assay. In addition to the mastitis isolates, E. coli (ATCC 25922) and S. aureus (ATCC 29213) reference strains were evaluated. […] The assays were performed in accordance with Clinical and Laboratory Standards Institute (CLSI) [formerly National Committee for Clinical Laboratory Standards (NCCLS)] guidelines (National Committee for Clinical Laboratory Standards. 1999. Methods for Determining Bacterial Activity of Antimicrobial Agents: Approved Guideline. Wayne, Pa.; National Committee for Clinical Laboratory Standards. 2002. Performance Standards for Antimicrobial Disk and Dilution Susceptibility Tests for Bacteria Isolated from Animals: Approved Standard. 2nd Edition, Wayne, Pa.). […] The bacterial suspension was then diluted 100-fold in cation-adjusted Mueller-Hinton broth to reach a final inoculum concentration of 10^6 CFU/ml. […] A negative control column was included in the plate that included 100 μl of broth alone. The plates were incubated for 18 h at 35° C. with ambient air circulation and without shaking. The wells were subsequently inspected for cloudiness and pellet formation using a magnifying glass plate reader. The lowest concentration at which no pellet or cloudiness was apparent in a given well was identified as the MIC. […] The plates were incubated overnight at 35° C. and colonies subsequently enumerated. The MBC values were determined as the lowest concentration at which ≧99.9% of inoculated bacteria were killed. All assays were performed in triplicate and the MIC and MBC range reported.

Klebsiella pneumoniae = assay: microbe, parasite or virus in culture; type: cell-based; conditions: Klebsiella pneumoniae, read-out: MIC
Excerpt: as §1

Staphylococcus aureus = assay: microbe, parasite or virus in culture; type: cell-based; conditions: ATCC29213; Staphylococcus aureus ATCC 29213; read-out: MIC
Excerpt: as §1

Enterobacter cloacae = assay: microbe, parasite or virus in culture; type: cell-based
Excerpt: as §1

Pseudomonas aeruginosa = assay: microbe, parasite or virus in culture; type: cell-based; conditions: Pseudomonas aeruginosa, read-out: MIC
Excerpt: as §1

Escherichia coli = assay: microbe, parasite or virus in culture; type: cell-based; conditions: Escherichia coli; for MIC: read-out: MIC
Excerpt: as §1

[1] = test system: bacterial LPS derived from E. coli 0111:B4; assay: LPS neutralization, Limulus amebocyte lysate (LAL) assay; type: biochemical; conditions: 1 ng LPS
Procedure: FIG. 1 depicts the mean (±S.E.) percent neutralization of bacterial LPS bioactivity as determined with the Limulus amebocyte lysate assay. Increasing concentrations of peptides or polymixin B were incubated with 1 ng of E. coli-derived LPS for 30 min. Following incubation, the amount of free LPS was determined by extrapolation from a standard curve and the percent of bound (neutralized) LPS was calculated.
The ability of the peptides to neutralize LPS was determined using a commercially available Limulus amebocyte lysate (LAL) assay (Cambrex BioScience Walkersville, Inc., Walkersville, Md.). As a positive control, polymyxin B (Sigma Chemical Co.) was evaluated in parallel with the peptides. Increasing concentrations of peptides or polymyxin B were incubated with 1 ng of highly purified bacterial LPS (Sigma Chemical Co.), derived from E. coli 0111:B4, in a 500 μl reaction volume of endotoxin-free water for 30 min at 37° C. while shaking at 100 rpm. Following the incubation, the amount of free LPS was determined in each sample according to the manufacturer's instructions. Briefly, 50 μl of the above mixture was placed into a 96-well microtiter plate and the reaction initiated by the addition of an equal volume of amoebocyte lysate. Following an incubation at 37° C. for 10 min, 100 μl of chromogenic substrate was added and the plate incubated for 5-10 min at 37° C. The reaction was stopped by the addition of 50 μl of glacial acetic acid and the absorbance measured at a wavelength of 405 nm on a microplate reader (Biotec Instruments, Inc., Winooski, Vt.). The amount of non-bound LPS was extrapolated from a standard curve and the percent inhibition calculated according to the following formula: […]
To determine whether the bBPI peptides were able to neutralize LPS, increasing concentrations of the peptides were incubated with LPS (1 ng) and the resulting mixture assayed with the LAL assay (FIG. 1). As a positive and negative control, respectively, polymyxin B and a non-BPI-derived peptide were also assayed. […] In contrast, bBPI142-169 and bBPI90-99,148-161 were able to neutralize ≧93% of LPS activity at peptide concentrations of 30 and 100 μg/ml, respectively.

CN(C)[C@@H]1C(O)=C(C(N)=O)C(=O)[C@@]2(O)C(O)=C3C(=O)c4c(O)cccc4[C@@](C)(O)[C@H]3C[C@@H]12 [Tetracycline, reference compound]
MIC (Serratia marcescens; Serratia marcescens Isolate #1): 32 µg/mL (≈ 72 µM)
MIC (Serratia marcescens; Serratia marcescens Isolate #2): 64 µg/mL (≈ 144 µM)
MIC (Serratia marcescens; Serratia marcescens Isolate #3): 64 µg/mL (≈ 144 µM)
MIC (Serratia marcescens; Serratia marcescens Isolate #4): 64 µg/mL (≈ 144 µM)
MIC (Serratia marcescens; Serratia marcescens Isolate #5): 64 µg/mL (≈ 144 µM)
MIC (Serratia marcescens; Serratia marcescens Isolate #6): 64 µg/mL (≈ 144 µM)
MIC (Klebsiella pneumoniae; Klebsiella pneumoniae Isolate #1): 64 µg/mL (≈ 144 µM)
MIC (Klebsiella pneumoniae; Klebsiella pneumoniae Isolate #3): 1 µg/mL (≈ 2.25 µM)
MIC (Klebsiella pneumoniae; Klebsiella pneumoniae Isolate #4): 64 µg/mL (≈ 144 µM)
MIC (Klebsiella pneumoniae; Klebsiella pneumoniae Isolate #5): 16 µg/mL (≈ 36 µM)
MIC (Klebsiella pneumoniae; Klebsiella pneumoniae Isolate #6): 0.5 µg/mL (≈ 1.13 µM)
MIC (Staphylococcus aureus): 0.25 to 0.5 µg/mL (≈ 0.563 to 1.13 µM)
MIC (Enterobacter cloacae; Enterobacter cloacae Isolate #2, read-out: MIC): 4 µg/mL (≈ 9 µM)
MIC (Enterobacter cloacae; Enterobacter cloacae Isolate #4): 4 µg/mL (≈ 9 µM)
MIC (Pseudomonas aeruginosa; Pseudomonas aeruginosa Isolate #1): 32 µg/mL (≈ 72 µM)
MIC (Pseudomonas aeruginosa; Pseudomonas aeruginosa Isolate #2): 16 µg/mL (≈ 36 µM)
MIC (Pseudomonas aeruginosa; Pseudomonas aeruginosa Isolate #3): 32 µg/mL (≈ 72 µM)
MIC (Pseudomonas aeruginosa; Pseudomonas aeruginosa Isolate #4): 16 µg/mL (≈ 36 µM)
MIC (Pseudomonas aeruginosa; Pseudomonas aeruginosa Isolate #5): 32 µg/mL (≈ 72 µM)
MIC (Pseudomonas aeruginosa; Pseudomonas aeruginosa Isolate #6): 16 µg/mL (≈ 36 µM)
MBC (Escherichia coli; ATCC25922, Escherichia coli ATCC 25922, read-out: MBC): 64 µg/mL (≈ 144 µM)
MIC (Escherichia coli; ATCC25922, Escherichia coli ATCC 25922): 0.5 to 1 µg/mL (≈ 1.13 to 2.25 µM)
MIC (Escherichia coli; Escherichia coli Isolate #1): 4 µg/mL (≈ 9 µM)
MIC (Escherichia coli; Escherichia coli Isolate #2): 4 µg/mL (≈ 9 µM)
MIC (Escherichia coli; Escherichia coli Isolate #3): 4 µg/mL (≈ 9 µM)
MIC (Escherichia coli; Escherichia coli Isolate #4): 4 µg/mL (≈ 9 µM)
MIC (Escherichia coli; Escherichia coli Isolate #5): 4 µg/mL (≈ 9 µM)
MIC (Escherichia coli; Escherichia coli Strain P4): 1 µg/mL (≈ 2.25 µM)

MCHWAGGASNTGDARGDV FGKQAG (MCHWAGGASNTGDARGDVFGKQAG; listed as Bos sp.) [control peptide, non-BPI-derived control peptide provided by the peptide synthesis company; negative control, reference compound]
inhibition of LPS activity ([1]; 100 μg/ml, 30 min): no inhibitory effect

polymyxin B [reference compound]
inhibition of LPS activity (in words) ([1]; increasing concentrations): inhibited LPS activity in dose-dependent manner
